Molecular target: Nucleotide-binding oligomerization domain-containing protein 2 (Homo sapiens, UniProt Q9HC29)
Experiment: NOD2 inhibitors, SAR follow-up, set 2 (AID 2475)

Sequence of Nucleotide-binding oligomerization domain-containing protein 2 (Q9HC29 whole entry, the tested form may be a part): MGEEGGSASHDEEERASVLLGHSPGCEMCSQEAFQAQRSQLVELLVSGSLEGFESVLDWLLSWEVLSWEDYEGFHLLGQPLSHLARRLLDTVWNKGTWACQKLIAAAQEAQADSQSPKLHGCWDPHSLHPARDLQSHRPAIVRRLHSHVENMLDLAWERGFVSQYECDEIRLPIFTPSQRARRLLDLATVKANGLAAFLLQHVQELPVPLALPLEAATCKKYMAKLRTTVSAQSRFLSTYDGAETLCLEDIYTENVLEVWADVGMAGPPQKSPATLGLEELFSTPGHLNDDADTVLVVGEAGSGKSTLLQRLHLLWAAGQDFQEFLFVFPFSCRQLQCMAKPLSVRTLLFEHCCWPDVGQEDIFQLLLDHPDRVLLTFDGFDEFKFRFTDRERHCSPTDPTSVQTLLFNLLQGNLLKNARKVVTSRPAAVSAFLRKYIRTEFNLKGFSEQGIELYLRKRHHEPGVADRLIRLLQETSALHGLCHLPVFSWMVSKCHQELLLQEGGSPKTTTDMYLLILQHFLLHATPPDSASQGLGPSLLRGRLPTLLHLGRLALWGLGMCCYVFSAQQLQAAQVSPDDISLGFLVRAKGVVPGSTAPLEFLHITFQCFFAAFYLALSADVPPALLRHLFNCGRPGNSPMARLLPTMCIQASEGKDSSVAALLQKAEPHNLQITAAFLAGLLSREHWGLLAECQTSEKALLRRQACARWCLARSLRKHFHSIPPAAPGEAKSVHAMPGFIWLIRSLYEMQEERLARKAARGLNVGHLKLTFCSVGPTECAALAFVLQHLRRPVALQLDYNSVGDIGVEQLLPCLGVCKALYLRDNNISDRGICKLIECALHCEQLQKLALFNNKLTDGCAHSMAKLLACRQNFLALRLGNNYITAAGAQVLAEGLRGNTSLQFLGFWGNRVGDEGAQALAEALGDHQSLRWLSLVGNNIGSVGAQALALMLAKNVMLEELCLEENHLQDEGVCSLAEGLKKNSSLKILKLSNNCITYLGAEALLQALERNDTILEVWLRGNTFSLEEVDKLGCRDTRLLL

Structure (SMILES)	IC50
Cc1ccc(C)c(SCC(=O)OCC(=O)C(C#N)c2nc3ccccc3[nH]2)c1 (configuration not stated) [MLS000392255]	4.21 µM
Cc1cc(SCC(=O)OCC(=O)C(C#N)c2nc3ccccc3[nH]2)c(C)cc1Br (configuration not stated)	5.19 µM

Reference: BindingDB's records for doi:10.7270/Q2JW8CBM (Burnham Center For Chemical Genomics, 2010)
